Starred links: 1 amine or outer side, 2 acyl side, 3 side chain; linkers in the order of their positions; H or OH if unused. Positions of bridges follow the written chain, without caps; N, C: chain ends. Non-standard residues stand in square brackets, D forms with d. Residues, ends and D or L forms follow the SMILES beside them. *: point of attachment. Leu(3R-OH,Nα-propionyl) = CCC(=O)N[C@H](C(=O)*)[C@H](O)C(C)C; X1 = CC(C)[C@@H](O[*:3])[C@H](N[*:1])C(=O)[*:2]; X2 = CC(C)[C@H](O[*:3])[C@@H](N[*:1])C(=O)[*:2]; NMeaThr = CN[C@H](C(=O)O)[C@H](C)O; dPhLac = O=C(O)[C@H](O)Cc1ccccc1; NMeA = CN[C@@H](C)C(=O)O; NMeDha = C=C(NC)C(=O)O
System: 92.1 UM cells
Assay: Gene Set Enrichment Analysis (GSEA) of RNA-Seq data
Type: cell-based, Human
[1] = gene set #CAFFAREL_RESPONSE_TO_THC_DN
[2] = gene set ALCALAY_AML_BY_NPM1_LOCALIZATION_DN
[3] = gene set BASSO_[?]_LYMPHOCYTE_NETWORK
[4] = gene set CHIANG_LIVER_CANCER_SUBCLASS_UNANNOTATED_DN
[5] = gene set CHICAS_RB1_TARGETS_GROWING
[6] = gene set CHICAS_RB1_TARGETS_SENESCENT
[7] = gene set DOUGLAS_[?]_TARGETS_UP
[8] = gene set ELVIDGE_HIF1A_TARGETS_UP
[9] = gene set FERRANDO_T_ALL_WITH_MLL_ENL_FUSION_DN
[10] = gene set FOURNIER_ACINAR_DEVELOPMENT_LATE_DN
[11] = gene set GARCIA_TARGETS_OF_FL[?]_AND_DAX1_DN
[12] = gene set GROSS_HYPOXIA_VIA_ELK3_UP
[13] = gene set GRUETZMANN_PANCREATIC_CANCER_UP
[14] = gene set IVANOVA_HEMATOPOIESIS_LATE_PROGENITOR
[15] = gene set JOHNSTONE_PARVES_TARGETS_2_DN
[16] = gene set KEGG_AMINO_SUGAR_AND_NUCLEOTIDE_SUGAR_METABOLISM
[17] = gene set KEGG_CITRATE_CYCLE_TCA_CYCLE
[18] = gene set KEGG_FC_GAMMA_[?]_MEIATED_PHAGOCYTOSIS
[19] = gene set KEGG_PATHOGENIC_ESCHERICHIA_COLI_INFECTION
[20] = gene set LASTOWSKA_NEUROBLASTOMA_COPY_NUMBER_DN
[21] = gene set MARIADASON_REGULATED_BY_HISTONE_ACETYLATION_DN
[22] = gene set MARTINEZ_RESPONSE_TO_TRABECTEDIN_DN
[23] = gene set MEINHOLD_OVARIAN_CANCER_LOW_GRADE_DN
[24] = gene set ONDER_CDH1_TARGETS_1_DN
[25] = gene set OXFORD_RALA_OR_RALB_TARGETS_UP
[26] = gene set PEART_HDAC_PROLIFERATION_CLUSTER_DN
[27] = gene set PODAR_RESPONSE_TO_ADAPHOSTIN_DN
[28] = gene set PRAMOONIAGO_SOX4_TARGETS_DN
[29] = gene set PUIFFE_INVASION_INHIBITED_BY_ASCITES_UP
[30] = gene set REACTOME_ACTIVATION_OF_CHAPERONE_GENES_BY_XBP15

`C=C1C(=O)N[C@@H](C)C(=O)N(C)[C@@H](C)C(=O)N[C@H]([C@@H](OC(=O)[C@@H](NC(=O)CC)[C@H](O)C(C)C)C(C)C)C(=O)N(C)[C@@H]([C@H](C)OC)C(=O)O[C@H](C(C)C)[C@H](NC(C)=O)C(=O)O[C@H](Cc2ccccc2)C(=O)N1C` [FR, [(1S)-1-[(3S,6R,9S,12S,18R,21S,22R)-21-acetamido-18-benzyl-3-[(1S)-1-methoxyethyl]-4,9,10,12,16-pentamethyl-15-methylidene-2,5,8,11,14,17,20-heptaoxo-22-propan-2-yl-1,19-dioxa-4,7,10,13,16-pentazacyclodocos-6-yl]-2-methylpropyl] (2S,3R)-3-hydroxy-4-methyl-2-(propanoylamino)pentanoate] (Ac-[X1][dPhLac][NMeDha]A[NMeA][X2](Leu(3R-OH,Nα-propionyl))[NMeaThr](Me); ester 1-C) was tested, and the ES [1] was 0.6253, the NES [1] was 2.134 and the ES [2] was 0.4726. The NES [2] was 2.261, the ES [3] was 0.4691 and the NES [3] was 2.175. It also gave an ES (gene set BENPORATH_ES_1) of 0.3997, an NES (gene set BENPORATH_ES_1) of 2.093 and an ES (gene set BIOCARTA_RHO_PATHWAY) of 0.6245. The NES (gene set BIOCARTA_RHO_PATHWAY) was 2.154, the ES [4] was 0.4436 and the NES [4] was 2.13. The ES [5] was 0.4131, the NES [5] was 2.057 and the ES [6] was 0.4124. For the same compound, the NES [6] was 2.254, the ES (gene set CSR_EARLY_UP.V1_UP) was 0.4601 and the NES (gene set CSR_EARLY_UP.V1_UP) was 2.136. The ES [7] was 0.3969, the NES [7] was 2.179 and the ES [8] was 0.5452. It also gave an NES [8] of 2.195, an ES [9] of 0.5186 and an NES [9] of 2.174. For the same compound, the ES [10] was 0.6475, the NES [10] was 2.082 and the ES (gene set GABP_B) was 0.419. For the same compound, the NES (gene set GABP_B) was 2.063, the ES [11] was 0.4628 and the NES [11] was 2.153. For the same compound, the ES [12] was 0.4432, the NES [12] was 2.179 and the ES [13] was 0.393. The NES [13] was 2.047, the ES [14] was 0.4037 and the NES [14] was 2.155. It also gave an ES (gene set JIANG_VHL_TARGETS) of 0.4893, an NES (gene set JIANG_VHL_TARGETS) of 2.171 and an ES [15] of 0.4128. For the same compound, the NES [15] was 2.133, the ES [16] was 0.5976 and the NES [16] was 2.088. The ES [17] was 0.6499, the NES [17] was 2.188 and the ES [18] was 0.5262. The NES [18] was 2.154, the ES [19] was 0.5693 and the NES [19] was 2.167. It also gave an ES [20] of 0.3819, an NES [20] of 2.135 and an ES (gene set LINSLEY_MIR16_TARGETS) of 0.4327. It also gave an NES (gene set LINSLEY_MIR16_TARGETS) of 2.092, an ES (gene set LIN_APC_TARGETS) of 0.5227 and an NES (gene set LIN_APC_TARGETS) of 2.086. The ES (gene set LY_AGING_PREMATURE_DN) was 0.6267, the NES (gene set LY_AGING_PREMATURE_DN) was 2.103 and the ES [21] was 0.5871. The NES [21] was 2.132, the ES [22] was 0.4324 and the NES [22] was 2.184. It also gave an ES [23] of 0.7218, an NES [23] of 2.197 and an ES (gene set NPS14_DN.V1_DN) of 0.4491. For the same compound, the NES (gene set NPS14_DN.V1_DN) was 2.133, the ES [24] was 0.4845 and the NES [24] was 2.225. It also gave an ES [25] of 0.544, an NES [25] of 2.089 and an ES (gene set PBC2_EED_UP.V1_DN) of 0.4268. It also gave an NES (gene set PBC2_EED_UP.V1_DN) of 2.076, an ES [26] of 0.4996 and an NES [26] of 2.059. For the same compound, the ES (gene set PIC_DCD42_REG_PATHWAY) was 0.5968, the NES (gene set PIC_DCD42_REG_PATHWAY) was 2.051 and the ES (gene set PIC_E2F_PATHWAY) was 0.5204. The NES (gene set PIC_E2F_PATHWAY) was 2.172, the ES (gene set PIC_FANCONE_PATHWAY) was 0.5661 and the NES (gene set PIC_FANCONE_PATHWAY) was 2.097. It also gave an ES (gene set PIC_FCER1_PATHWAY) of 0.5656, an NES (gene set PIC_FCER1_PATHWAY) of 2.102 and an ES (gene set PID_PDGFRB_PATHWAY) of 0.4862. For the same compound, the NES (gene set PID_PDGFRB_PATHWAY) was 2.232, the ES (gene set PIO_AURORA_A_PATHWAY) was 0.6657 and the NES (gene set PIO_AURORA_A_PATHWAY) was 2.186. It also gave an ES (gene set PIO_TCR_PATHWAY) of 0.6, an NES (gene set PIO_TCR_PATHWAY) of 2.184 and an ES [27] of 0.6921. For the same compound, the NES [27] was 2.117, the ES [28] was 0.5652 and the NES [28] was 2.158. The ES [29] was 0.5104, the NES [29] was 2.126 and the ES (gene set RACTOME_IMMUNE_SYSTEM) was 0.3664. The NES (gene set RACTOME_IMMUNE_SYSTEM) was 2.063, the ES (gene set RB_P107_0N, L1_UP) was 0.4941 and the NES (gene set RB_P107_0N, L1_UP) was 2.216. It also gave an ES [30] of 0.5859 and an NES [30] of 2.116.
